Assay results from patent EP4745137A1 (Gluetacs Therapeutics (Shanghai) Co., Ltd., priority 2023, dated 2025).
Values belong to the molecule of their own block, whether it stands above or below them.

Tests used:
IKZF1 = target: T1, IKZF1 (Homo sapiens, UniProt Q13422+Q96SW2); test: Western-blot assay of substrate protein degradation in hPBMCs, IKZF1; assay type: cell-based; conditions: 24 hours of compound treatment
T1 construct: endogenous in cells; host or cells: hPBMCs (Milecell Biotechnologies)
T1 sequence (Q13422 whole entry): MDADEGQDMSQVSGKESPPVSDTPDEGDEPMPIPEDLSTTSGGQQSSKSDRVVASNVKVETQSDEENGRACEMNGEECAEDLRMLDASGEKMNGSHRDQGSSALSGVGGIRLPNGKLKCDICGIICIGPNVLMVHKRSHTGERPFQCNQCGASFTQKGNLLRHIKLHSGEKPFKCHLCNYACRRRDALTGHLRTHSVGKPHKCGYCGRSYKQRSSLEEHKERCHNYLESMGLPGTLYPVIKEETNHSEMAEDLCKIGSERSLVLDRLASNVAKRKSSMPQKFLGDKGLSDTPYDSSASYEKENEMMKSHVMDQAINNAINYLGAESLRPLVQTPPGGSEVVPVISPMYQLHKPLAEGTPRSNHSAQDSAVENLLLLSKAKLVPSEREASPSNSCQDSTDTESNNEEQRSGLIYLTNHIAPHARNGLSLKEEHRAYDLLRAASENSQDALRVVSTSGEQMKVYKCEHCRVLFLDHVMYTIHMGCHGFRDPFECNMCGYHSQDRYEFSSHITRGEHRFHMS
T1 sequence (Q96SW2 whole entry): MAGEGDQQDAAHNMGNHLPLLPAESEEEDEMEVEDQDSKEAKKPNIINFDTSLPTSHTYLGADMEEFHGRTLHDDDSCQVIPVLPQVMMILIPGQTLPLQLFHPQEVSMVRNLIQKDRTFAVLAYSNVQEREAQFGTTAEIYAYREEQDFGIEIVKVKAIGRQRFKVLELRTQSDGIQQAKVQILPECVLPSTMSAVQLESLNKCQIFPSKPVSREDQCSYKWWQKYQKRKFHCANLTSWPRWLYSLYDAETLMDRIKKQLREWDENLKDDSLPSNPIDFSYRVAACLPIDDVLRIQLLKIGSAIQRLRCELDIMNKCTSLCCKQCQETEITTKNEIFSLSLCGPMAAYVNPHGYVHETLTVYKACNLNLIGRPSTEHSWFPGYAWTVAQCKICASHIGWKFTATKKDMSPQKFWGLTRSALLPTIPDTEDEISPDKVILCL
T1 sequence (Q16531 whole entry partner): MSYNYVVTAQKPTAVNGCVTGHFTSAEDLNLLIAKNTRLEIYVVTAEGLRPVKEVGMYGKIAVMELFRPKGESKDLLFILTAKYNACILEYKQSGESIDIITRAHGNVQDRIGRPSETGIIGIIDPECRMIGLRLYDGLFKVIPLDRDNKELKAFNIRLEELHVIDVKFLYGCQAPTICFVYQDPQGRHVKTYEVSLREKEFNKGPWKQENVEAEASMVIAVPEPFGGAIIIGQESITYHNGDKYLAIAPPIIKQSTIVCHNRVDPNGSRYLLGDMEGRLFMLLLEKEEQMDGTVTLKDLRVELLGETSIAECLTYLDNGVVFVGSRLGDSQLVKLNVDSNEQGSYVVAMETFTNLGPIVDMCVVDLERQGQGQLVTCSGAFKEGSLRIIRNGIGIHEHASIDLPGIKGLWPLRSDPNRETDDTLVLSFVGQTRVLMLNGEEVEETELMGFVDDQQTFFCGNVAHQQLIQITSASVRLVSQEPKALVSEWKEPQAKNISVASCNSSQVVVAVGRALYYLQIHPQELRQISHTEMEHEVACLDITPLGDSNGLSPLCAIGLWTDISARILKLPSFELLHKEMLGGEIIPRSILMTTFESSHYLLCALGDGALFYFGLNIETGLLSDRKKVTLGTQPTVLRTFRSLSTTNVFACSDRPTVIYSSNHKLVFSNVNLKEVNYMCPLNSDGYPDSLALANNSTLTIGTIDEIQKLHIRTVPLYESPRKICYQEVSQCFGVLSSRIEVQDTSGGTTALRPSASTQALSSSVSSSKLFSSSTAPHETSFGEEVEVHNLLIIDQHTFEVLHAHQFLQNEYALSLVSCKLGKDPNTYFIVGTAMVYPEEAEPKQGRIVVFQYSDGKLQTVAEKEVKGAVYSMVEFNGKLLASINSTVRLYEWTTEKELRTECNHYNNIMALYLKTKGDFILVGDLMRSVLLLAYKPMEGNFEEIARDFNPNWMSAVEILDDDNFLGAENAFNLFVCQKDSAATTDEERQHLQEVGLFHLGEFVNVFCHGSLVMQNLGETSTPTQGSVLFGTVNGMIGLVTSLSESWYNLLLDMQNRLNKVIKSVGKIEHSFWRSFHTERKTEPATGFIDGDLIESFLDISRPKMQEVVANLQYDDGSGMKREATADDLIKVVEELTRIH

IKZF2 = target: T2, IKZF2 (Homo sapiens, UniProt Q96SW2+Q9UKS7); test: Western-blot assay of substrate protein degradation in hPBMCs, IKZF2; assay type: cell-based; conditions: 24 hours of compound treatment
T2 construct: endogenous in cells; host or cells: hPBMCs (Milecell Biotechnologies)

IKZF3 = target: T3, IKZF3 (Homo sapiens, UniProt Q96SW2+Q9UKT9); test: Western-blot assay of substrate protein degradation in hPBMCs, IKZF3; assay type: cell-based; conditions: 24 hours of compound treatment
T3 construct: endogenous in cells; host or cells: hPBMCs (Milecell Biotechnologies)
T3 sequence (Q9UKT9 whole entry): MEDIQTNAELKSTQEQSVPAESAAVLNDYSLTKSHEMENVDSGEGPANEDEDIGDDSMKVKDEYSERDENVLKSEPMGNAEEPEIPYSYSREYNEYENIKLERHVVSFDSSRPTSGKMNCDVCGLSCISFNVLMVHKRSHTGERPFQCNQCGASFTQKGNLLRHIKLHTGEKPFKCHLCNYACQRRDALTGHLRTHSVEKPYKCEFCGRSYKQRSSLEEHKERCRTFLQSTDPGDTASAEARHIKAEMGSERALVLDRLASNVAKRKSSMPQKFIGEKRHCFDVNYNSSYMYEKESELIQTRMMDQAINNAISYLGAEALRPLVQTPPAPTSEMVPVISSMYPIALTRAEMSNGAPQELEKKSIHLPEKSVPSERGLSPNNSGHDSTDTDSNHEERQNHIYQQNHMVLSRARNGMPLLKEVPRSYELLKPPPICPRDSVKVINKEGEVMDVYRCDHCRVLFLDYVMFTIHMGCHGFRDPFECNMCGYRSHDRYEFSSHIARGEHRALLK
T3 sequence (Q96SW2 whole entry): as the sequence (Q96SW2 whole entry) above
T3 sequence (Q16531 whole entry partner): as the sequence (Q16531 whole entry partner) above

CK1α = target: T4, CK1α (Homo sapiens, UniProt P48729+Q96SW2); test: Western-blot assay of substrate protein degradation in hPBMCs, CK1α; assay type: cell-based; conditions: 24 hours of compound treatment
T4 construct: endogenous in cells; host or cells: hPBMCs (Milecell Biotechnologies)
T4 sequence (P48729 whole entry): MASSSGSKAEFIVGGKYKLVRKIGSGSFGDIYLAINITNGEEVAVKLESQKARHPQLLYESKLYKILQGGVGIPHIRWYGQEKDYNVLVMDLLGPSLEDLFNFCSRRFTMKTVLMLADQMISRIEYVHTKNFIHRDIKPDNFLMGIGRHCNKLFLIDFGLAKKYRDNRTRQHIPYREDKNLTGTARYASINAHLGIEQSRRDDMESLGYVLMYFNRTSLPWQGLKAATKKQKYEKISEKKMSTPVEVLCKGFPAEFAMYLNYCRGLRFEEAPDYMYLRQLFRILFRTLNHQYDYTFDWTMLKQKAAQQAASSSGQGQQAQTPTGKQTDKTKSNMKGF
T4 sequence (Q96SW2 whole entry): as the sequence (Q96SW2 whole entry) above
T4 sequence (Q16531 whole entry partner): as the sequence (Q16531 whole entry partner) above

WEE1 = target: T5, WEE1 (Homo sapiens, UniProt P30291+Q96SW2); test: Western-blot assay of substrate protein degradation in hPBMCs, WEE1; assay type: cell-based; conditions: 24 hours of compound treatment
T5 construct: endogenous in cells; host or cells: hPBMCs (Milecell Biotechnologies)
T5 sequence (P30291 whole entry): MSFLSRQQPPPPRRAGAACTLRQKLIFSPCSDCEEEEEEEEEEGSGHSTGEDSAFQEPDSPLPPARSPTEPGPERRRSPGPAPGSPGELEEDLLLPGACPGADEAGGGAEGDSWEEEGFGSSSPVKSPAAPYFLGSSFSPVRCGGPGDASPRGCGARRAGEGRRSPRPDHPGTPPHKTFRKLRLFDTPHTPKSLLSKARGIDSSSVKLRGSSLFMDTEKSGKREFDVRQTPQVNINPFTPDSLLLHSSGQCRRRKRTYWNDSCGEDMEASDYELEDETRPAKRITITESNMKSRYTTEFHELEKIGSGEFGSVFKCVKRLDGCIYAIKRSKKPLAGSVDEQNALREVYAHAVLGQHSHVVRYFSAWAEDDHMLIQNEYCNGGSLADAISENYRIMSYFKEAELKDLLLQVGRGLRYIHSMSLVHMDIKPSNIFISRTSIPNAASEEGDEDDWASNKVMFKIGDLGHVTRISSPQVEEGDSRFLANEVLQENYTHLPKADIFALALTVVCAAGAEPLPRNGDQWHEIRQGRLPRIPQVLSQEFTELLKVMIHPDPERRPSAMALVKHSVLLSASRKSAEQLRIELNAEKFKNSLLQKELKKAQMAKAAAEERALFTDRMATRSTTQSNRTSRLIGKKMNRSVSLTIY
T5 sequence (Q96SW2 whole entry): as the sequence (Q96SW2 whole entry) above
T5 sequence (Q16531 whole entry partner): as the sequence (Q16531 whole entry partner) above

GSPT1 = target: T6, GSPT1 (Homo sapiens, UniProt P15170+Q96SW2); test: Western-blot assay of substrate protein degradation in hPBMCs, GSPT1; assay type: cell-based; conditions: 24 hours of compound treatment
T6 construct: endogenous in cells; host or cells: hPBMCs (Milecell Biotechnologies)
T6 sequence (P15170 whole entry): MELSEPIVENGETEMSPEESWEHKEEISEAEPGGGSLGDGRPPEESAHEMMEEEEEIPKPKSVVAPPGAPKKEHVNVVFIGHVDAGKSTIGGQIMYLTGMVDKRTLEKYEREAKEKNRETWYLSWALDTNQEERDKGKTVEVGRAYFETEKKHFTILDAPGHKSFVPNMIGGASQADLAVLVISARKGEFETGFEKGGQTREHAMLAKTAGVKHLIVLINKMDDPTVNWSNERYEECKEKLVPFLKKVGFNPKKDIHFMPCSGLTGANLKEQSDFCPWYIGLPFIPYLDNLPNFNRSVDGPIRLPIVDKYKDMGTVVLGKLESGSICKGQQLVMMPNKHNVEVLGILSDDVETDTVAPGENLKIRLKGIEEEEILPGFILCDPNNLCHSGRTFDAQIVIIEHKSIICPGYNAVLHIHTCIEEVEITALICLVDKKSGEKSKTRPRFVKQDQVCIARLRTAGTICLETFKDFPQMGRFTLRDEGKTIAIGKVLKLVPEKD
T6 sequence (Q96SW2 whole entry): as the sequence (Q96SW2 whole entry) above
T6 sequence (Q16531 whole entry partner): as the sequence (Q16531 whole entry partner) above

[1] = target: T7, human Cereblon WT GST-tagged protein (Homo sapiens, UniProt Q96SW2); test: CRBN-binding affinity by HTRF (CEREBLON BINDING kit); conditions: HTRF inhibitory activity, CEREBLON BINDING kit; read-out: HTRF IC50
T7 construct: purchased CISBIO 64BDCRBNPEH
T7 sequence (Q96SW2 whole entry): as the sequence (Q96SW2 whole entry) above
Experimental: The CEREBLON BINDING kits (specification: 10,000 tests; product number: Catalog # 64BDCRBNPEH; CISBIO company) was used to determine the CRBN binding ability of the compounds to be tested through a HTRF method (homogeneous time-resolved fluorescence). The specific methods are as follows: • 1. […] Specifically, diluent #9 (1X) solution was used as the diluent, and multiple concentration gradients were set. […] Then, 2.5 µL of human Cereblon WT GST-tagged protein solution was added to each well. Finally, 5 µL of the thoroughly mixed Thalidomide-Re reagent and GST Eu antibody working solution were added to each of the aforementioned wells. […] The blank control wells were sequentially added with 2.5 µL of diluent #9 (1X) solution, 2.5 µL of binding buffer, and 5 µL of thoroughly mixed Thalidomide-Re reagent and GST Eu antibody working solution. • 4.

[2] = compounds tested at 50 nM and 500 nM (concentration of the table not stated)
[3] = 50 nM and 500 nM tested (concentration behind the class not stated)

Structure (SMILES): Cc1ccc(N2CCN(Cc3ccc4c(c3)C(=O)N(C3CCC(=O)NC3=O)C4=O)CC2)s1 (centres unmarked) [GT-06213, 2-(2,6-dioxopiperidin-3-yl)-5-((4-(5-methylthiophen-2-yl)piperazin-1-yl)methyl)isoindoline-1,3-dione]
IKZF 1 substrate protein remaining % (IKZF1; [3]): B (80%< substrate protein remaining %≤ 100%)
IKZF2 substrate protein remaining % (IKZF2; [3]): A (0% ≤ substrate protein remaining % ≤ 80%)
IKZF3 substrate protein remaining % (IKZF3; [3]): B (80%< substrate protein remaining %≤ 100%)
CK1a substrate protein remaining % (CK1α; [3]): B (80%< substrate protein remaining %≤ 100%)
Weel substrate protein remaining % (WEE1; [3]): B (80%< substrate protein remaining %≤ 100%)
GSPT1 substrate protein remaining % (GSPT1; [3]): A (0% ≤ substrate protein remaining % ≤ 80%)
IC50 [1]: 1500 to 1900 nM

Structure (SMILES): O=C1CCC(N2Cc3cc(CN4CCN(c5ccc(Cl)nc5)CC4)ccc3C2=O)C(=O)N1 (centres unmarked) [GT-04537, 3-(5-((4-(6-chloropyridin-3-yl)piperazin-1-yl)methyl)-1-oxoisoindolin-2-yl)piperidine-2,6-dione]
IKZF 1 substrate protein remaining % (IKZF1; [2]): A (0% ≤ substrate protein remaining % ≤ 80%)
IKZF2 substrate protein remaining % (IKZF2; [2]): A (0% ≤ substrate protein remaining % ≤ 80%)
IKZF3 substrate protein remaining % (IKZF3; [2]): A (0% ≤ substrate protein remaining % ≤ 80%)
CK1a substrate protein remaining % (CK1α; [2]): A (0% ≤ substrate protein remaining % ≤ 80%)
Weel substrate protein remaining % (WEE1; [2]): A (0% ≤ substrate protein remaining % ≤ 80%)
GSPT1 substrate protein remaining % (GSPT1; [2]): A (0% ≤ substrate protein remaining % ≤ 80%)
IC50 [1]: 500 to 1000 nM

Structure (SMILES): O=C1CCC(N2Cc3cc(CN4CCN(c5nc(N6CCNCC6)c6sccc6n5)CC4)ccc3C2=O)C(=O)N1 (centres unmarked) [GT-04698, 3-(1-oxo-5-((4-(4-(piperazin-1-yl)thieno[3,2-d]pyrimidin-2-yl)piperazin-1-yl)methyl)isoindolin-2-yl)piperidine-2,6-dione]
IKZF 1 substrate protein remaining % (IKZF1; [2]): A (0% ≤ substrate protein remaining % ≤ 80%)
IKZF2 substrate protein remaining % (IKZF2; [2]): A (0% ≤ substrate protein remaining % ≤ 80%)
IKZF3 substrate protein remaining % (IKZF3; [2]): A (0% ≤ substrate protein remaining % ≤ 80%)
CK1a substrate protein remaining % (CK1α; [2]): B (80%< substrate protein remaining %≤ 100%)
Weel substrate protein remaining % (WEE1; [2]): A (0% ≤ substrate protein remaining % ≤ 80%)
GSPT1 substrate protein remaining % (GSPT1; [2]): A (0% ≤ substrate protein remaining % ≤ 80%)
IC50 [1]: 500 to 1000 nM

Structure (SMILES): O=C1CCC(N2Cc3cc(CN4CCN(c5ccncc5)CC4)ccc3C2=O)C(=O)N1 (centres unmarked) [GT-04450, 3-(1-oxo-5-((4-(pyridin-4-yl)piperazin-1-yl)methyl)isoindolin-2-yl)piperidine-2,6-dione]
IKZF 1 substrate protein remaining % (IKZF1; [2]): B (80%< substrate protein remaining %≤ 100%)
IKZF2 substrate protein remaining % (IKZF2; [2]): B (80%< substrate protein remaining %≤ 100%)
IKZF3 substrate protein remaining % (IKZF3; [2]): B (80%< substrate protein remaining %≤ 100%)
CK1a substrate protein remaining % (CK1α; [2]): B (80%< substrate protein remaining %≤ 100%)
Weel substrate protein remaining % (WEE1; [2]): B (80%< substrate protein remaining %≤ 100%)
GSPT1 substrate protein remaining % (GSPT1; [2]): A (0% ≤ substrate protein remaining % ≤ 80%)
IC50 [1]: 500 to 1000 nM

Structure (SMILES): Cc1nc(N2CCN(Cc3ccc4c(c3)C(=O)N(C3CCC(=O)NC3=O)C4=O)CC2)c2c3c(sc2n1)CCCC3 (centres unmarked) [GT-06348, 2-(2,6-dioxopiperidin-3-yl)-5-((4-(2-methyl-5,6,7,8-tetrahydrobenzo[4,5]thieno[2,3-d]pyrimidin-4-yl)piperazin-1-yl)methyl)isoindoline-1,3-dione]
IKZF 1 substrate protein remaining % (IKZF1; [3]): A (0% ≤ substrate protein remaining % ≤ 80%)
IKZF2 substrate protein remaining % (IKZF2; [3]): A (0% ≤ substrate protein remaining % ≤ 80%)
IKZF3 substrate protein remaining % (IKZF3; [3]): A (0% ≤ substrate protein remaining % ≤ 80%)
CK1a substrate protein remaining % (CK1α; [3]): A (0% ≤ substrate protein remaining % ≤ 80%)
Weel substrate protein remaining % (WEE1; [3]): A (0% ≤ substrate protein remaining % ≤ 80%)
GSPT1 substrate protein remaining % (GSPT1; [3]): A (0% ≤ substrate protein remaining % ≤ 80%)
IC50 [1]: 1000 to 1500 nM

More lines, main results first:

IC50 [1]: 500 to 1000 nM
Structure (SMILES): O=C1CCC(N2Cc3cc(CN4CCC(c5ncnc6sccc56)CC4)ccc3C2=O)C(=O)N1 (centres unmarked) [GT-04702, 3-(1-oxo-5-((4-(thieno[2,3-d]pyrimidin-4-yl)piperidin-1-yl)methyl)isoindolin-2-yl)piperidine-2,6-dione]
IKZF 1 substrate protein remaining % (IKZF1; [2]): A (0% ≤ substrate protein remaining % ≤ 80%)
IKZF2 substrate protein remaining % (IKZF2; [2]): A (0% ≤ substrate protein remaining % ≤ 80%)
IKZF3 substrate protein remaining % (IKZF3; [2]): A (0% ≤ substrate protein remaining % ≤ 80%)
CK1a substrate protein remaining % (CK1α; [2]): B (80%< substrate protein remaining %≤ 100%)
Weel substrate protein remaining % (WEE1; [2]): B (80%< substrate protein remaining %≤ 100%)
GSPT1 substrate protein remaining % (GSPT1; [2]): A (0% ≤ substrate protein remaining % ≤ 80%)

IC50 [1]: < 500 nM
Structure (SMILES): Cc1sc2ncnc(C3CCN(Cc4ccc5c(c4)CN(C4CCC(=O)NC4=O)C5=O)CC3)c2c1C (centres unmarked) [GT-05034, 3-(5-((4-(5,6-dimethylthieno[2,3-d]pyrimidin-4-yl)piperidin-1-yl)methyl)-1-oxoisoindolin-2-yl)piperidine-2,6-dione]
IKZF 1 substrate protein remaining % (IKZF1; [2]): A (0% ≤ substrate protein remaining % ≤ 80%)
IKZF2 substrate protein remaining % (IKZF2; [2]): A (0% ≤ substrate protein remaining % ≤ 80%)
IKZF3 substrate protein remaining % (IKZF3; [2]): A (0% ≤ substrate protein remaining % ≤ 80%)
CK1a substrate protein remaining % (CK1α; [2]): A (0% ≤ substrate protein remaining % ≤ 80%)
Weel substrate protein remaining % (WEE1; [2]): B (80%< substrate protein remaining %≤ 100%)
GSPT1 substrate protein remaining % (GSPT1; [2]): A (0% ≤ substrate protein remaining % ≤ 80%)

IC50 [1]: < 500 nM
Structure (SMILES): Cc1nc(C2=CCN(Cc3ccc4c(c3)CN(C3CCC(=O)NC3=O)C4=O)CC2)c2c(-c3ccccc3)csc2n1 (centres unmarked) [GT-05102, 3-(5-((4-(2-methyl-5-phenylthieno[2,3-d]pyrimidin-4-yl)-3,6-dihydropyridin-1(2H)-yl)methyl)-1-oxoisoindolin-2-yl)piperidine-2,6-dione]
IKZF 1 substrate protein remaining % (IKZF1; [2]): A (0% ≤ substrate protein remaining % ≤ 80%)
IKZF2 substrate protein remaining % (IKZF2; [2]): A (0% ≤ substrate protein remaining % ≤ 80%)
IKZF3 substrate protein remaining % (IKZF3; [2]): B (80%< substrate protein remaining %≤ 100%)
CK1a substrate protein remaining % (CK1α; [2]): B (80%< substrate protein remaining %≤ 100%)
Weel substrate protein remaining % (WEE1; [2]): A (0% ≤ substrate protein remaining % ≤ 80%)
GSPT1 substrate protein remaining % (GSPT1; [2]): A (0% ≤ substrate protein remaining % ≤ 80%)

IC50 [1]: < 500 nM
Structure (SMILES): O=C1CCC(N2Cc3cc(CN4CCN(c5ncnc6sc(-c7ccccc7)cc56)CC4)ccc3C2=O)C(=O)N1 (centres unmarked) [GT-04862, 3-(1-oxo-5-((4-(6-phenylthieno[2,3-d]pyrimidin-4-yl)piperazin-1-yl)methyl)isoindolin-2-yl)piperidine-2,6-dione]
IKZF 1 substrate protein remaining % (IKZF1; [2]): A (0% ≤ substrate protein remaining % ≤ 80%)
IKZF2 substrate protein remaining % (IKZF2; [2]): A (0% ≤ substrate protein remaining % ≤ 80%)
IKZF3 substrate protein remaining % (IKZF3; [2]): A (0% ≤ substrate protein remaining % ≤ 80%)
CK1a substrate protein remaining % (CK1α; [2]): A (0% ≤ substrate protein remaining % ≤ 80%)
Weel substrate protein remaining % (WEE1; [2]): A (0% ≤ substrate protein remaining % ≤ 80%)
GSPT1 substrate protein remaining % (GSPT1; [2]): A (0% ≤ substrate protein remaining % ≤ 80%)

IC50 [1]: < 500 nM
Structure (SMILES): O=C1CCC(N2Cc3cc(CN4CCC(c5ncnc6sc(-c7ccccc7)cc56)CC4)ccc3C2=O)C(=O)N1 (centres unmarked) [GT-05159, 3-(1-oxo-5-((4-(6-phenylthieno[2,3-d]pyrimidin-4-yl)piperidin-1-yl)methyl)isoindolin-2-yl)piperidine-2,6-dione]
IKZF 1 substrate protein remaining % (IKZF1; [2]): A (0% ≤ substrate protein remaining % ≤ 80%)
IKZF2 substrate protein remaining % (IKZF2; [2]): A (0% ≤ substrate protein remaining % ≤ 80%)
IKZF3 substrate protein remaining % (IKZF3; [2]): A (0% ≤ substrate protein remaining % ≤ 80%)
CK1a substrate protein remaining % (CK1α; [2]): B (80%< substrate protein remaining %≤ 100%)
Weel substrate protein remaining % (WEE1; [2]): B (80%< substrate protein remaining %≤ 100%)
GSPT1 substrate protein remaining % (GSPT1; [2]): A (0% ≤ substrate protein remaining % ≤ 80%)

IC50 [1]: < 500 nM
Structure (SMILES): O=C1CCC(N2Cc3cc(CN4CCN(c5nsc6cc(F)ccc56)CC4)ccc3C2=O)C(=O)N1 (centres unmarked) [GT-05332, 3-(5-((4-(6-fluorobenzo[d]isothiazol-3-yl)piperazin-1-yl)methyl)-1-oxoisoindolin-2-yl)piperidine-2,6-dione]
IKZF 1 substrate protein remaining % (IKZF1; [2]): B (80%< substrate protein remaining %≤ 100%)
IKZF2 substrate protein remaining % (IKZF2; [2]): A (0% ≤ substrate protein remaining % ≤ 80%)
IKZF3 substrate protein remaining % (IKZF3; [2]): B (80%< substrate protein remaining %≤ 100%)
CK1a substrate protein remaining % (CK1α; [2]): B (80%< substrate protein remaining %≤ 100%)
Weel substrate protein remaining % (WEE1; [2]): B (80%< substrate protein remaining %≤ 100%)
GSPT1 substrate protein remaining % (GSPT1; [2]): B (80%< substrate protein remaining %≤ 100%)
